Experiment: in vitro
Conditions: human, hela cells, % viability
Work on Cc1cccc(C)c1N(C1CCNCC1)S(=O)(=O)c1ccc2c(c1)CCO2 [CBK153668T] yielded a viability at 28.5 h, 10 µM of 99.1%. In the case of COc1ccc(C(C)=O)cc1Cc1c(O)nc(SC)nc1O [CBK262699], the viability at 28.5 h, 10 µM is reported as 93.9%. With CS(=O)(=O)Nc1nccnc1OC1CCN(CCCC#N)CC1 [CBK084276] the viability at 28.5 h, 10 µM was 99.4%. In the case of O=C(O)c1ccc(CNC(=S)Nc2ccc([N+](=O)[O-])cc2)cc1 [CBK267037], the viability at 28.5 h, 10 µM is reported as 92.9%. For O=C(CSc1nnc(CN2CCOCC2)n1-c1ccc(Cl)cc1)N1c2ccccc2SC2C=CC=CC21 (centres unmarked) [CBK268820], the viability at 28.5 h, 10 µM was 91.3%. Work on O=C(Nc1ccc(N2CCNCC2)nc1)C1CCC1 [CBK004743T] yielded a viability at 28.5 h, 10 µM of 86.2%. Compound NNC(=O)c1cc(-c2ccc(-c3ccccc3)cc2)nc2ccc(Br)cc12 [CBK261760] has a viability at 28.5 h, 10 µM of 104%. Compound COC(=O)c1cnn(-c2cc(Oc3ccccc3C)ncn2)c1N [CBK098668] has a viability at 28.5 h, 10 µM of 102%. With Cc1nn(C)c(N2CCNCC2)c1NC(=O)c1cccs1 [CBK050303T] the viability at 28.5 h, 10 µM was 91.9%. With COc1cc(/C=N/NC(=O)c2ccc([N+](=O)[O-])cc2)ccc1OC(C)=O [CBK261348] the viability at 28.5 h, 10 µM was 112%. Cn1ncc2c1CCCN(C(=O)Cc1ccc3c(c1)CCCO3)C2 [CBK282253] showed a viability at 28.5 h, 10 µM of 87.8%. Work on CCNc1cc(-c2ccco2)ncn1 [CBK090879] yielded a viability at 28.5 h, 10 µM of 108%. With O=C(Cc1ccc([N+](=O)[O-])cc1)Nc1ccc(O)cc1C(=O)O [CBK265977] the viability at 28.5 h, 10 µM was 97.6%. In the case of CCOC(=O)c1[nH]c2ccccc2c1NS(=O)(=O)c1ccc(OC)c(OC)c1 [CBK047421], the viability at 28.5 h, 10 µM is reported as 86%. Compound Cc1cc2c([nH]c3ccccc32)c(C)n1 [CBK262689] has a viability at 28.5 h, 10 µM of 104%. With CCNC(=O)NC[C@H]1C[C@@H]2CCN1C[C@@H]2c1cc(-c2ccc(F)cc2)nn1C [CBK289110] the viability at 28.5 h, 10 µM was 88%. In the case of COc1ccc(NS(=O)(=O)c2cccc(Cl)c2C)c(C(=O)NCc2ccccc2)c1 [CBK113953], the viability at 28.5 h, 10 µM is reported as 85.3%. Work on O=C(Nc1ccc(S(=O)(=O)Nc2cncs2)cc1)c1ccc(-c2cccc(C(F)(F)F)c2)o1 [CBK266625] yielded a viability at 28.5 h, 10 µM of 89%. In the case of O=C(CN(Cc1ccc(F)cc1)S(=O)(=O)c1ccc(Cl)cc1)Nc1ccc2c(c1)OCCO2 [CBK265346], the viability at 28.5 h, 10 µM is reported as 90.2%. In the case of CC(=O)N1C[C@@H]2OCC(=O)N(Cc3nccn3C)[C@@H]2C1 [CBK289668], the viability at 28.5 h, 10 µM is reported as 90.6%. For COc1cccc(C(=O)N2CCOC(c3cc(C(=O)NCC(C)C)c4ccccc4n3)C2)c1 (centres unmarked) [CBK285894], the viability at 28.5 h, 10 µM was 97.4%. With CC(=O)N(C)c1nc(-c2ccco2)ccc1C(=O)Nc1cc(C)nn1C [CBK106356] the viability at 28.5 h, 10 µM was 89.3%. For CC(=O)NCCn1nc(-c2ccccc2F)cc1CN(C)C [CBK283473], the viability at 28.5 h, 10 µM was 95.7%. COc1cccc2c(=O)n(CCCn3nc(C)nc3C)cnc12 [CBK307295] gave a viability at 28.5 h, 10 µM of 97%. Work on CN(C)CCNC(=O)C(=O)Nc1ccc(Cl)cc1 [CBK266965] yielded a viability at 28.5 h, 10 µM of 107%. COc1cc(S(=O)(=O)NCc2ccncc2)c(C)cc1C [CBK269988] gave a viability at 28.5 h, 10 µM of 91.8%. Work on COc1ccc(Oc2cc3n(c(=O)n2)CCc2cc(OC)c(OC)cc2-3)cc1 [CBK291177] yielded a viability at 28.5 h, 10 µM of 86.1%. Compound Oc1ccccc1Nc1nc(NC2CCCC2)c2ccccc2n1 [CBK268402C] has a viability at 28.5 h, 10 µM of 84.8%. With CCN(CC)C(=O)Cn1nc(C)n2c(cc3oc(C)cc32)c1=O [CBK283609] the viability at 28.5 h, 10 µM was 93.7%. In the case of Clc1ccc(SCCOCCN2CCCCC2)cc1 [CBK265108G], the viability at 28.5 h, 10 µM is reported as 87.3%. c1cncc(-c2ncc(-c3ccco3)c(-c3ccco3)n2)c1 [CBK284503] showed a viability at 28.5 h, 10 µM of 93.5%. Compound Cc1ccccc1NCC(=O)N/N=C\c1cc(Br)c(O)c(Br)c1 [CBK262120] has a viability at 28.5 h, 10 µM of 87.7%. C=CCNc1nccnc1-c1cnc(OC)nc1OC [CBK036922] gave a viability at 28.5 h, 10 µM of 91.7%. Compound Cc1ccc([N+](=O)[O-])c(OCCNCCN(C)C)c1 [CBK267822C] has a viability at 28.5 h, 10 µM of 89%. For Cc1[nH]c2ccccc2c1C(=O)CSc1nc2scc(-c3ccco3)c2c(=O)n1-c1ccccc1 [CBK267933], the viability at 28.5 h, 10 µM was 93.3%. Compound COc1cccc(OCC(O)CN2CCN(Cc3ccccc3)CC2)c1 (centres unmarked) [CBK074856C] has a viability at 28.5 h, 10 µM of 108%. Compound Cc1nn(C)cc1C(C)NC(=O)C1CC2C=CC1C21CC1 (centres unmarked) [CBK282088] has a viability at 28.5 h, 10 µM of 100%. For Cc1cc(COc2nccnc2N2CCCC2)no1 [CBK115755], the viability at 28.5 h, 10 µM was 91.3%. In the case of N#CCCCN1CCC2(CC1)OCCc1c2[nH]c2ccc(Br)cc12 [CBK040105], the viability at 28.5 h, 10 µM is reported as 88.4%. Compound CNC(=O)C(NC(=S)NC(=O)c1ccc(F)cc1)C(C)(C)C (centres unmarked) [CBK021945] has a viability at 28.5 h, 10 µM of 109%. In the case of Cc1cccn2c(=O)cc(CN3CCC(c4cnn(C)c4)CC3)nc12 [CBK305806], the viability at 28.5 h, 10 µM is reported as 101%. Work on C=CCNC(=O)N1CCC2(CC1)OCCc1c2n(C)c2ccccc12 [CBK047354] yielded a viability at 28.5 h, 10 µM of 84.8%. For COc1ccnc(N2CCN(C(=O)c3cnn(C)c3)CC2)n1 [CBK306125], the viability at 28.5 h, 10 µM was 90.7%. With COC(=O)Nc1ncc(CN2CCc3ccccc3C2)s1 [CBK268376] the viability at 28.5 h, 10 µM was 97.5%. Work on Cc1cc(NC(=O)CN2CC(C(=O)N3CCN(c4ccccc4)CC3)C2)no1 [CBK285665] yielded a viability at 28.5 h, 10 µM of 112%. Cc1ccc(C(=O)N2CCC(Cc3ccccc3)CC2)cn1 [CBK200179] gave a viability at 28.5 h, 10 µM of 94.7%. With N=C1NC(=O)/C(=C/c2ccc(O)c(Cl)c2)S1 [CBK100992] the viability at 28.5 h, 10 µM was 109%. Work on CC(C)(C)CC(C)(C)N=C(S)Nc1ccc2nc(-c3ccccn3)c(-c3ccccn3)nc2c1 [CBK265118] yielded a viability at 28.5 h, 10 µM of 91%. Work on O=C(O)c1ccc2[nH]c3c(c2c1)CCCC3 [CBK001252] yielded a viability at 28.5 h, 10 µM of 90.9%. COCOc1ccc(-c2nccnc2OCCN2C(=O)c3ccccc3C2=O)cc1 [CBK106913] gave a viability at 28.5 h, 10 µM of 111%. With Cc1cccc(-c2csc3c(=O)[nH]c(N4CCC(C(=O)NCc5cccnc5)CC4)nc23)c1 [CBK215624] the viability at 28.5 h, 10 µM was 86.8%. Work on O=C(NCc1ccc(F)cc1)Nc1ccccc1F [CBK115584] yielded a viability at 28.5 h, 10 µM of 98.9%. CC(=O)Nc1cc(C(=O)CSc2nnnn2-c2ccc(C)c(C)c2)ccc1O [CBK295143] gave a viability at 28.5 h, 10 µM of 90.9%. COc1ccc(S(=O)(=O)Nc2cccc(C(=O)Nc3ccc(F)cc3)c2)cc1OC [CBK038982] showed a viability at 28.5 h, 10 µM of 71.7%. Work on O=C(Cc1ccc(F)cc1)N1C2CCC1CC(O)(c1ccco1)C2 (centres unmarked) [CBK284033] yielded a viability at 28.5 h, 10 µM of 86.4%. Cc1nc2ccc(C(=O)N(C)CCN(C)C)cn2c1N(C)CC1CCCCC1 [CBK145894] gave a viability at 28.5 h, 10 µM of 96.7%. O=C(NCC1CCCCC1)C1(Cc2cccc(-c3cccnc3)c2)CCOCC1 [CBK285607] gave a viability at 28.5 h, 10 µM of 97.5%. In the case of O=C(O)COc1ccc2c(=O)c(Oc3ccccc3Br)c(C(F)(F)F)oc2c1 [CBK263747], the viability at 28.5 h, 10 µM is reported as 101%. CN(C)Cc1cc(CN(C)C)c(O)c(C(C)(C)C)n1 [CBK260969] showed a viability at 28.5 h, 10 µM of 90.6%. For CCCCCNC(=O)C1CCN(Cn2c(=O)oc3cc(Cl)ccc32)CC1 [CBK298290], the viability at 28.5 h, 10 µM was 86.3%. For O=S1(=O)CCC(Sc2nncc3ccccc23)C1 (centres unmarked) [CBK021586], the viability at 28.5 h, 10 µM was 92.2%. O=C(CN1CCN(c2cc(-c3ccsc3)ncn2)CC1)N1CCCC1 [CBK091074] gave a viability at 28.5 h, 10 µM of 99.9%. Work on c1ccc2c(Sc3cncc(N4CCCC4)n3)cccc2c1 [CBK089594] yielded a viability at 28.5 h, 10 µM of 88.2%. Cc1ccc(S(=O)(=O)NCC(=O)Nc2ccc(Cl)cn2)cc1 [CBK091357] gave a viability at 28.5 h, 10 µM of 105%. With O=C1COc2ccccc2CCCCC2(CCCN(C(=O)CCN3CCCC3=O)C2)CN1 (centres unmarked) [CBK291998] the viability at 28.5 h, 10 µM was 103%.

Reference: publication PMC12040169 (PLOS Biology, 2025)
